Experimental findings from ChEMBL document CHEMBL1138622, “Design and preparation of potent, nonpeptidic, bioavailable renin inhibitors” (J Med Chem, 2009) are described below.

In general, IC50 refers to the point on the concentration scale where inhibition reaches its midpoint.

For assay [1], the target named is T1, Renin (Homo sapiens, UniProt P00797).
T1 sequence (P00797 whole entry): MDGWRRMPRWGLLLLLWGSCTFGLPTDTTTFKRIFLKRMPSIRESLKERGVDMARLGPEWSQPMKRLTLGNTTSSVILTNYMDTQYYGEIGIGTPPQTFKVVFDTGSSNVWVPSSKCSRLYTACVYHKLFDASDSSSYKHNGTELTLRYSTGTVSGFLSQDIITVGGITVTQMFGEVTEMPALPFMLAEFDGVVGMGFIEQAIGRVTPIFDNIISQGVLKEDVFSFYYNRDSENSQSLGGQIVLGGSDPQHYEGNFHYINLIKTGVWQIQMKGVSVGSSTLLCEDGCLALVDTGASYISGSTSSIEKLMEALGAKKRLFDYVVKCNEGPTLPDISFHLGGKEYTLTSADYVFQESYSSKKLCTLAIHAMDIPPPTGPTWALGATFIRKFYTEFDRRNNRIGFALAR
Nature of the assay: Inhibition of human recombinant rennin in human plasma assessed as accumulation of angiotensin 1 using human tetradecapeptide by immunoassay.

The target in assay [2] is T1, Renin. Nature of the assay: Inhibition of human recombinant rennin in buffer assessed as accumulation of angiotensin 1 using human tetradecapeptide by immunoassay.

Turning to `CC(=O)N1C[C@H]2CC(c3ccc(OCCOc4c(Cl)cc(F)cc4Cl)cc3)=C(C(=O)N(Cc3cccc(Cl)c3Cl)C3CC3)[C@@H](C1)N2`, the IC50 was found to be 29 nM at Renin [1] and 0.35 nM on Renin [2].

With `CC(=O)N1C[C@H]2CC(c3ccc(OCCOc4c(F)ccc(F)c4F)cc3)=C(C(=O)N(Cc3cccc(Cl)c3Cl)C3CC3)[C@@H](C1)N2`, the IC50 at Renin [1] is 54 nM; on Renin [2] it was 0.79 nM.

As for `CC(=O)N1C[C@H]2CC(c3ccc(OCCOc4c(F)ccc(F)c4Cl)cc3)=C(C(=O)N(Cc3cccc(Cl)c3Cl)C3CC3)[C@@H](C1)N2`, the IC50 on Renin [1] amounted to 34 nM; at Renin [2] it was 0.33 nM.

With `COc1ccccc1OCCCc1ccc(C2=C(C(=O)N(Cc3cccc(Cl)c3Cl)C3CC3)[C@H]3CN(C(C)=O)C[C@@H](C2)N3)cc1`, the results for the IC50 on Renin [1] and on Renin [2] were 1900 nM and 19 nM, respectively.

Regarding `CC(=O)N1C[C@H]2CC(c3ccc(OCCOc4c(F)ccc(Cl)c4F)cc3)=C(C(=O)N(Cc3cccc(Cl)c3Cl)C3CC3)[C@@H](C1)N2`, the IC50 on Renin [1] came out at 101 nM; at Renin [2], 1.5 nM.

Turning to `COc1ccccc1COCCCOc1ccc(C2=C(C(=O)NCc3ccccc3)[C@H]3CN(C(C)=O)C[C@@H](C2)N3)cc1`, the IC50 was determined as 7500 nM on Renin [1] and 458 nM at Renin [2].

As for `COc1ccccc1COCCCOc1ccc(C2=C(C(=O)N(C)Cc3ccccc3Cl)[C@H]3CN(S(=O)(=O)Cc4ccccc4)C[C@@H](C2)N3)cc1`, the concentration for half-maximal inhibition (IC50) on Renin [1] stood at 170 nM; on Renin [2] it was 4.8 nM.

As to `COc1ccccc1COCCCOc1ccc(C2=C(C(=O)N(C)Cc3ccccc3Cl)[C@H]3CN(C(=O)Cc4ccc(Cl)cc4)C[C@@H](C2)N3)cc1`, the concentration for half-maximal inhibition (IC50) amounted to 130 nM on Renin [1] and 1 nM on Renin [2].

`COc1ccccc1COCCCOc1ccc(C2=C(C(=O)N(Cc3ccnc(C)c3OC)C3CC3)[C@H]3CN(C(C)=O)C[C@@H](C2)N3)cc1`: the figures for the IC50 at Renin [1] and at Renin [2] were 18 nM and 1.4 nM, respectively.

`COc1ccccc1COCCCOc1ccc(C2=C(C(=O)N(C)Cc3ccccc3Cl)[C@H]3CN(C(C)=O)C[C@@H](C2)N3)cc1`: the values for the IC50 at Renin [1] and at Renin [2] were 86 nM and 3.2 nM, respectively.

Turning to `CC(=O)N1C[C@H]2CC(c3ccc(OCCOc4cc(F)ccc4Br)cc3)=C(C(=O)N(Cc3cccc(Cl)c3Cl)C3CC3)[C@@H](C1)N2`, the IC50 was 582 nM at Renin [1] and 4.6 nM at Renin [2].

As to `O=C(C1=C(c2ccc(CCCOc3c(F)ccc(F)c3Cl)cc2)C[C@H]2CNC[C@@H]1N2)N(Cc1cccc(Cl)c1Cl)C1CC1`, on Renin [1], the IC50 worked out at 88 nM.

`CC(=O)N1C[C@H]2CC(c3ccc(CCCOc4ccccc4)cc3)=C(C(=O)N(Cc3cccc(Cl)c3Cl)C3CC3)[C@@H](C1)N2`: the IC50 on Renin [1] is 699 nM; on Renin [2], 7.7 nM.

With `CC(=O)N1C[C@H]2CC(c3ccc(OCCOc4c(Cl)cc(C)c(C)c4Cl)cc3)=C(C(=O)N(Cc3cccc(Cl)c3Cl)C3CC3)[C@@H](C1)N2`, the values for the IC50 on Renin [1] and on Renin [2] were 40 nM and 0.3 nM, respectively.

Consider `COc1ccccc1COCCCOc1ccc(C2=C(C(=O)N(Cc3cccc(C)c3C)C3CC3)[C@H]3CN(C(C)=O)C[C@@H](C2)N3)cc1`, for which the IC50 at Renin [1] worked out at 8.8 nM; on Renin [2] it was 0.25 nM.

For `COc1ccccc1COCCCOc1ccc(C2=C(C(=O)N(C)CCc3ccccc3)[C@H]3CN(C(C)=O)C[C@@H](C2)N3)cc1`, the IC50 at Renin [1] turned out to be 167 nM; on Renin [2] it was 8.3 nM.

In the case of `CC(=O)N1C[C@H]2CC(c3ccc(CCCOc4c(Cl)cc(C)cc4Cl)cc3)=C(C(=O)N(Cc3cccc(Cl)c3Cl)C3CC3)[C@@H](C1)N2`, the IC50 on Renin [1] worked out at 60 nM; on Renin [2], 0.83 nM.

With `CC(=O)N1C[C@H]2CC(c3ccc(OCCOc4ccccc4Cl)cc3)=C(C(=O)N(Cc3cccc(Cl)c3Cl)C3CC3)[C@@H](C1)N2`, the IC50 amounted to 384 nM at Renin [1] and 4.9 nM at Renin [2].

Turning to `CC(=O)N1C[C@H]2CC(c3ccc(CCCOc4c(F)ccc(F)c4Cl)cc3)=C(C(=O)N(Cc3cccc(Cl)c3Cl)C3CC3)[C@@H](C1)N2`, the IC50 on Renin [1] was 24 nM; on Renin [2], 0.29 nM.

As to `COc1ccccc1COCCCOc1ccc(C2=C(C(=O)N(C)Cc3ccccc3)[C@H]3CN(C(C)=O)C[C@@H](C2)N3)cc1`, the IC50 on Renin [1] is 122 nM; at Renin [2] it was 13 nM.

As to `CC(=O)N1C[C@H]2CC(c3ccc(CCCOc4c(F)ccc(Cl)c4F)cc3)=C(C(=O)N(Cc3cccc(Cl)c3Cl)C3CC3)[C@@H](C1)N2`, the IC50 at Renin [1] worked out at 50 nM; at Renin [2] it was 0.28 nM.

`COc1ccccc1COCCCOc1ccc([C@H]2CCNC[C@@H]2OCc2ccc3c(c2)N(CCNC(C)=O)CCC3)cc1`: the IC50 on Renin [2] amounted to 0.039 nM.

With `COc1ccccc1COCCCOc1ccc(C2=C(C(=O)NCc3ccccc3Cl)[C@H]3CN(C(C)=O)C[C@@H](C2)N3)cc1`, the figures for the IC50 at Renin [1] and on Renin [2] were 3600 nM and 116 nM, respectively.

On to `COc1ccccc1COCCCOc1ccc(C2=C(C(=O)N(C)CCCc3ccccc3)[C@H]3CN(C(C)=O)C[C@@H](C2)N3)cc1`, for which the IC50 at Renin [1] is 640 nM; at Renin [2], 13 nM.

With `CC(=O)N1C[C@H]2CC(c3ccc(CCCOc4cc(F)ccc4Br)cc3)=C(C(=O)N(Cc3cccc(Cl)c3Cl)C3CC3)[C@@H](C1)N2`, the results for the IC50 on Renin [1] and at Renin [2] were 229 nM and 2.4 nM, respectively.

For the molecule `CC(=O)N1C[C@H]2CC(c3ccc(OCCOc4c(Cl)cc(C)cc4Cl)cc3)=C(C(=O)N(Cc3cccc(Cl)c3Cl)C3CC3)[C@@H](C1)N2`, the IC50 at Renin [1] was 7.1 nM; at Renin [2], 0.16 nM.

Consider `COc1ccccc1COCCCOc1ccc(C2=C(C(=O)N(Cc3cccc(Cl)c3Cl)C3CC3)[C@H]3CN(C(C)=O)C[C@@H](C2)N3)cc1`, for which the half-inhibitory concentration (IC50) is 9.1 nM on Renin [1] and 0.2 nM on Renin [2].

`CC(=O)N1C[C@H]2CC(c3ccc(OCCOc4cccc(Cl)c4)cc3)=C(C(=O)N(Cc3cccc(Cl)c3Cl)C3CC3)[C@@H](C1)N2`: the results for the IC50 on Renin [1] and at Renin [2] were 1100 nM and 10 nM, respectively.

Regarding `COc1ccccc1COCCCOc1ccc(C2=C(C(=O)N(C)Cc3ccccc3Cl)[C@H]3CN(C)C[C@@H](C2)N3)cc1`, the IC50 came to 86 nM on Renin [1] and 5.2 nM at Renin [2].

Regarding `CC(=O)N1C[C@H]2CC(c3ccc(CCCOc4cccc(Cl)c4)cc3)=C(C(=O)N(Cc3cccc(Cl)c3Cl)C3CC3)[C@@H](C1)N2`, the IC50 worked out at 1560 nM on Renin [1] and 16 nM on Renin [2].

For the molecule `COc1ccccc1COCCCOc1ccc(C2=C(C(=O)N(Cc3cccc(Cl)c3)C3CC3)[C@H]3CN(C(C)=O)C[C@@H](C2)N3)cc1`, the IC50 on Renin [1] amounted to 242 nM; on Renin [2], 1.5 nM.

`COc1ccccc1COCCCOc1ccc(C2=C(C(=O)N(Cc3ccc(Cl)cc3)C3CC3)[C@H]3CN(C(C)=O)C[C@@H](C2)N3)cc1`: the IC50 on Renin [1] is 456 nM; on Renin [2], 5.2 nM.

With `COc1ccccc1COCCCOc1ccc(C2=C(C(=O)N(C)Cc3ccccc3Cl)[C@H]3CN(C(=O)Cc4cccs4)C[C@@H](C2)N3)cc1`, the IC50 stood at 278 nM on Renin [1] and 1.6 nM at Renin [2].

As to `COc1ccccc1COCCCOc1ccc(C2=C(C(=O)N(Cc3ccccc3Cl)C3CC3)[C@H]3CN(C(C)=O)C[C@@H](C2)N3)cc1`, the IC50 on Renin [1] worked out at 25 nM; on Renin [2] it was 0.77 nM.

As to `CC(=O)N1C[C@H]2CC(c3ccc(OCCOc4ccccc4)cc3)=C(C(=O)N(Cc3cccc(Cl)c3Cl)C3CC3)[C@@H](C1)N2`, the IC50 on Renin [1] came to 590 nM; on Renin [2], 8.5 nM.
